# Test results: publication PMC8092876, “A Leucyl-tRNA Synthetase Inhibitor with Broad-Spectrum Antimycobacterial Activity” (Antimicrobial Agents and Chemotherapy, 2021)
# Experiments:
# [1] = test system: M. tuberculosis H37Rv ATCC 27294; test: MIC assay in 96-well plate format; type: cell-based; details: Mycobacterium tuberculosis, 168 h
# [2] = test system: M. abscessus subsp. abscessus ATCC 19977; test: MIC assay in 96-well plate format; type: cell-based; details: Mycobacteroides abscessus, ATCC19977; M. abscessus subsp. abscessus ATCC 19977, culture collection reference strain
# [3] = test system: M. abscessus subsp. massiliense CCUG 48898T; test: MIC assay in 96-well plate format; type: cell-based; details: Mycobacteroides abscessus, culture collection reference strain
# [4] = test system: M. abscessus subsp. abscessus M337; test: MIC assay in 96-well plate format; type: cell-based; details: Mycobacteroides abscessus; M. abscessus subsp. abscessus M337, clinical isolate
# [5] = test system: M. abscessus subsp. abscessus M404; test: MIC assay in 96-well plate format; type: cell-based; details: Mycobacteroides abscessus; M. abscessus subsp. abscessus M404, clinical isolate
# [6] = test system: M. abscessus subsp. bolletii M506; test: MIC assay in 96-well plate format; type: cell-based; details: Mycobacteroides abscessus; M. abscessus subsp. bolletii M506, clinical isolate
# [7] = test system: M. intracellulare ATCC 13950; test: MIC assay in 96-well plate format; type: cell-based; details: Mycobacterium intracellulare, ATCC13950; M. intracellulare ATCC 13950, culture collection reference strain
# [8] = test system: M. abscessus Bamboo biofilms; test: Biofilm growth inhibition assay (biofilm MIC and MBC); type: cell-based, M. abscessus subsp. abscessus; details: Mycobacteroides abscessus
# Experimental: The biofilm growth inhibition assay was performed as previously described ([40]). Innovotech MBEC 96-well biofilm assay plates (Innovotech 19111, Edmonton, AB, Canada) were used, and the supplier’s manual was followed with minor modifications. Mid-log-phase M. abscessus Bamboo precultures (OD600 = 0.4 to 0.6) were spun down at 3200 × g for 10 min at 25°C and washed with 7H9 medium without Tween 80 (7H9nt). Bacteria were resuspended into 25 ml 7H9nt to an OD600 of 0.0125 (1.0 × 10^6 CFU/ml). […] The lids with the pegs were transferred to a new MBEC multititer plate containing 150 μl of fresh 7H9nt medium per well without bacteria (0 h time point). After that, the pegs with growing biofilm were transferred once a day to a new multititer plate containing fresh 7H9nt medium. To measure growth of the biofilm formed on the peg, the pegs were washed in 200 μl of 7H9nt medium before they were aseptically removed and placed in 1.7 ml microcentrifuge tubes (VWR 87003-294, Rador, PA, United States) containing 500 μl PBS/Tween 80. The microcentrifuge tubes were vigorously vortexed at 2,000 rpm for 90 s at 25°C to detach the bacteria from the pegs before samples were serially diluted and plated for the determination of CFU/peg. […] The average drug-free biofilm growth was calculated by subtracting the average 24 h CFU/peg value from the average 72 h CFU/peg value for the untreated control pegs. The biofilm MIC was defined as the lowest drug concentration that reduced the CFU/peg by 90% relative to that of the average drug-free biofilm growth.
# [9] = test system: M. abscessus Bamboo RM3 (LeuS V417M); test: microbe, parasite or virus in culture; type: cell-based; details: RM3, batch 1, LeuS V417M
# [10] = test system: M. abscessus Bamboo RM5 (LeuS V417M); test: microbe, parasite or virus in culture; type: cell-based; details: RM5, batch 2, LeuS V417M
# ChromlogD assay = type: physicochemical; details: reversed phase HPLC column (Gemini NX C18), pH 7.4
# Experimental: The Chromatographic Hydrophobicity Index (CHI) values are measured using reversed phase high-performance liquid chromatography (HPLC) column (50 by 2 mm […] Gemini NX C18, Phenomenex, UK) with fast acetonitrile gradient at starting mobile phase of pHs 2, 7.4, and 10.5. CHI values are derived directly from the gradient retention times by using a calibration line obtained for standard compounds. The CHI value approximates to the volume percent organic concentration when the compound elutes. CHI is linearly transformed into ChromlogD by least-square fitting of experimental CHI values to calculated ClogP values for over 20,000 research compounds using the following formula: ChromlogD = (0.0857 × CHI) − 2.00. The average error of the assay is ±3 CHI unit or ±0.25 ChromlogD.
# [11] = AMP (artificial membrane permeability) assay; type: in vitro ADME; details: PAMPA, pH 7.4
# Experimental: An 8% L-α-phosphatidylcholine (EPC) in 1% cholesterol decane solution and a 1.8% EPC in cholesterol decane solution were prepared. The lipid solution was then aliquoted into 4 ml capped vials, sealed with parafilm, and stored in a −20°C freezer. The lipid solution was then transferred from 4 ml vial into a 96-well half area plate (130 μl/well) for daily assay usage. An additional 50 mM phosphate buffer with 0.5% encapsin (pH 7.4) was prepared. The assay was run by the Biomek FX and Biomek software. The assay procedure is written under the Biomek software. For one batch assay, it can test two 96-well sample plates with at least one standard on each sample plate. The total assay time was about 4 h. A total of 3.5 μl of lipid solution was added to the filler plate and shaken for 12 s, 250 μl of buffer was added to the donor side, and 100 μl of buffer was added to the receiver side. The assay plate was shaken for 45 min before adding the compounds. The test compounds (2.5 μl) were added to the donor side. The assay was run as replicates: assay plates 1 and 2 tested sample plate 1, and assay plates 3 and 4 tested sample plate 2. The assay plates were then incubated and shaken for 3 h at room temperature. […] Compound concentration was measured by HPLC at different time points.
compound,measurement,setting,value
CC(C)(O)COc1ccc(Br)c2c1B(O)O[C@@H]2CN [EC/11770],MIC,[1],0.56 µM
same,MIC,[2],0.7 µM
same,MIC,[3],0.71 µM
same,MIC,[4],0.5 µM
same,MIC,[5],0.52 µM
same,MIC,[6],0.48 µM
same,MIC,[7],0.37 µM
same,MBC,[8]; 10-fold CFU/peg reduction vs 24 h,50 µM
same,MIC,"[8]; 48 h with drug, 90% reduction of CFU/peg growth",3.1 µM
same,MIC,[9]; Mycobacteroides abscessus,60 to 75 µM
same,MIC,[9],62 µM
same,MIC,[10]; Mycobacteroides abscessus,60 to 75 µM
same,MIC,[10],75 µM
same,chromatographic logD,ChromlogD assay,0.97
same,Papp at 3 h,[11],27.5 ×10⁻⁶ cm/s
